Article PMC10102027, “Helquat dyes targeting G-quadruplexes as a new class of anti-HIV-1 inhibitors” (Scientific Reports, 2023)
pEC50: −log10 of the molar value.

How the values were obtained:
[1] = system: G-quadruplexes in the HIV-1 LTR (G4 LTR FRET oligonucleotide); assay: FRET melting assay; format: binding; conditions: 2 μM compound, 0.2 μM oligonucleotide; for Tm: 100 mM KCl, mean and standard error, three experiments; for ΔTm: average Tm minus average Tm of PBS
in vitro = format: cell-based; conditions: human
From the text: (§1) Based on a facile [2 + 2 + 2]‐cycloisomerization strategy, a robust three‐step synthetic entry into a novel family of helical extended diquats (helquats) was developed. After a straightforward Knoevenagel condensation of the respective helquat parent with different aldehydes (Fig. 2A), more than 500 helquat-based compounds were synthesized and screened for anti-HIV-1 activity in an assay based on the inhibition of the virus-induced cytopathic effect in MT-4 cells, evaluated after 5 days post-infection by an XTT assay. In parallel with the screening, the XTT assay was also used to determine the cytotoxicity of all compounds (Fig. 2B; for more information on the synthesis and characterization of the compounds, see the Supplementary Information). […]
(§2) XTT screening. MT-4 cells were seeded in 80 µl of the RPMI without Phenol Red in the amount of 3x10^4 cells per well of a 96-well plate. 10 µl of tested compounds (500 µM at 5% DMSO) or controls (5% DMSO at PBS, AZT 1mM, SQV 100 µM) were added to the cells; after one-hour incubation at 37 °C, HIV-1 (NL4-3 strain) was added with MOI = 0.05 and the infected cells were cultivated for five days.
(§3) The viability of the cells was measured by the XTT cell viability and proliferation assay. Briefly, 50 µl of the XTT solution with the addition of PMS (both VWR) was added to the cultivation media and incubated in a humidified incubator maintained at 37 °C with 5% CO2 for four hours, after which absorbance at 560 nm was measured on a VICTOR plate reader (PerkinElmer).
The cytotoxicity of the tested compounds was evaluated separately without virus addition and analysed by the same assay.
(§4) For compounds selected as hits in the initial screening, the effective concentration that inhibits 50% of the viral activity (EC50) and the cytotoxic concentration that reduces the MT -4 cell viability by 50% (CC50) were determined. Viral activity was evaluated after five days as an HIV-1-induced cytopathic effect quantified by the XTT assay. Selected hits were tested at two-fold serial dilutions from 50 µM concentration, and the drug concentrations required to reduce the viral cytopathic effect by 50% (EC 50) as well as the drug concentrations that reduced MT-4 cell viability by 50% (CC50) were calculated by nonlinear regression using GraphPad Prism v.8.0.0 (GraphPad Software).

HIV-1 (NL4-3 strain) = assay: CPE-based antiviral assay in HIV-1-infected MT-4 cells (XTT); format: cell-based; conditions: Human immunodeficiency virus 1, NL43, MT4, 120 h, cytopathic effect-based assay, MT-4 cells infected by HIV-1 (NL4-3 strain), 5 days post-infection
From the text: as §1, §2
as §3, with “(PerkinElmer). […]” for “(PerkinElmer).”
as §4

HIV-1 [2] = assay: Adsorption assay (RT activity in supernatant); format: cell-based; conditions: 10 µM, compound and virions added to MT-4 cells simultaneously, washed out after 2 h, RT activity 5 days after infection
Protocol: (§5) To address virion binding and entry in a competitive setting, we performed an adsorption assay where test compounds and virions were added to MT-4 cells simultaneously and were washed out after 2 h of incubation. In parallel, we performed a replication assay where MT-4 cells were infected with HIV-1 and the tested compounds were added 1 h later. In both cases, the infection was evaluated by measuring reverse transcriptase activity in a cell-free supernatant 5 days after the infection (Fig. 3). As controls, PBS (phosphate-buffered saline) and inhibitors of different HIV-1 life-cycle steps were used: AMD (AMD3100), an inhibitor of gp120 attachment to CXCR4 receptors of the target cell, thus preventing HIV-1 adsorption and entry; AZT (azidothymidine), an inhibitor of reverse transcriptase; and RAL (raltegravir), an integrase inhibitor.
(§6) MT-4 cells were seeded in 80 µl of the Roswell Park Memorial Institute (RPMI) medium in the amount of 2 × 10^5 cells per well of a 96-well plate, and 10 µl of the virus stock were immediately added with the final multiplicity of infection (MOI) of 0.05. For a replication assay, the infected cells were incubated at 37 °C for 1 h before the addition of compounds being tested (10 µM final concentration) and subsequently cultivated at 37 °C for another 5 days. For an adsorption test, by contrast, the compounds (10 µM final concentration) were added simultaneously with the virus, and after 2 h of incubation, the cells were washed three times with PBS to remove the compounds and unbound virions; after the addition of 100 µl of the RPMI medium, the cells were cultivated at 37 °C for 5 days. Five days post-infection, aliquots of virus-containing cell-free supernatants were harvested and analysed by reverse transcriptase (RT) assay (described in the Supplementary Information). The experiments were performed as biological replicates where the sample size for each condition was n = 3.
(§7) RT assay. The reverse transcriptase (RT) activity in a cell-free supernatant was assessed by an α-32P RT assay. Briefly, the RT activity in the culture medium, which corresponded to the amount of HIV-1, was used to produce a DNA copy of an RNA template by extending a complementary oligo dT DNA primer with radiolabelled nucleotides. A reaction mixture containing 50 mM Tris-HCl pH 7.8, 75 mM KCl, 2 mM DTT, 5 mM MgCl2 and 0.5% NP-40 (all Sigma-Aldrich), 5 µg per ml of poly (rA)-poly (dT) (The Midlan Certified Reagent Company) with 1 µl 10-mCi/ml [α-32P]dTTP (American Radiolabeled Chemicals) per ml, and the tested sample was incubated at 37°C for two hours, after which 10 µl were spotted on DEAE blotting paper (PerkinElmer) and air-dried. After five washes with SSC buffer (0.15 M NaCl, 0.015 M sodium citrate) and three additional washes with 85% ethanol, the blotting paper was exposed to Phosphoscreen overnight, which was scanned on a Typhoon 9410 Phosphorimager instrument (GE Healthcare). The intensity of the dots was analysed by the ImageQuant software (GE Healthcare).

HIV-1 [3] = assay: Replication assay (RT activity in supernatant); format: cell-based; conditions: 10 µM, compound added 1 h after infection of MT-4 cells, RT activity 5 days after infection
Protocol: as §5, §6, §7

Cn1cc(/C=C/c2cc(/C=C/c3cn(C)c4ccccc34)[n+]3c(c2)-c2c(ccc4c2-c2cccc[n+]2CCC4)CCC3)c2ccccc21 [Compound 12]
Tm [1]: 79 ± 0.2 °C
ΔTm [1]: 28 °C
CC50 at 5 days (in vitro): > 50000 nM
pEC50 (HIV-1 (NL4-3 strain)): 5.57
effect on virus adsorption (HIV-1 [2]): minimal or no effect on virus adsorption
effect on viral replication (HIV-1 [3]): significantly impairing viral replication

C(=C\c1cc(/C=C/c2ccc3c(c2)CCO3)[n+]2c(c1)-c1c(ccc3c1-c1cccc[n+]1CCC3)CCC2)/c1ccc2c(c1)CCO2 [Compound 14]
Tm [1]: 64 ± 0.2 °C
ΔTm [1]: 13 °C
CC50 at 5 days (in vitro): > 50000 nM
pEC50 (HIV-1 (NL4-3 strain)): 5.57
effect on virus adsorption (HIV-1 [2]): minimal or no effect on virus adsorption
effect on viral replication (HIV-1 [3]): significantly impairing viral replication

COc1ccc2ccccc2c1/C=C/c1cc[n+]2c(c1)-c1c(c(C)c(C)c3c1-c1cc(/C=C/c4c(OC)ccc5ccccc45)cc[n+]1CC3)CC2 [Compound 15]
Tm [1]: 70 ± 1.0 °C
ΔTm [1]: 19 °C
CC50 at 5 days (in vitro): > 50000 nM
pEC50 (HIV-1 (NL4-3 strain)): 5.56
effect on virus adsorption (HIV-1 [2]): minimal or no effect on virus adsorption
effect on viral replication (HIV-1 [3]): significantly impairing viral replication
